In US5288872A, “Compounds for treatment of neurodegenerative diseases” (priority 1992, dated 1994):

Experiments:
[1] = test system: synaptosomes from the striatal area of rat brain; experiment: Dopamine release from striatal synaptosomes of rat brain; type: cell-based, rat (Sprague-Dawley); settings: read-out: Dopamine Release (percent release relative to S(-)nicotine)
Method: Dopamine release was measured by preparing synaptosomes from the striatal area of rat brain generally obtained from Sprague-Dawley rats according to the procedures set forth by Nagy, et al., J. Neurochem., Vol. 43, pp. 1114-1123 (1984). Striata from 4 rats were homogenized in 2 ml of 0.32M sucrose buffered with 5 mM HEPES (pH 7.5), using a glass-teflon tissue grinder. The homogenate was diluted to 5 ml with additional homogenization solution and centrifuged at 1000×g for 10 min. This procedure was repeated on the new pellet and the resulting supernatant was centrifuged at 12,000×g for 20 min. […] Using this method, 30 to 90 percent of the dopamine was taken up into the synaptosomes, as determined by scintillation counting following filtration through glass fiber filters soaked with 0.5 percent polyethyleneimine. […] After the addition of a 0.2 ml of a 20 μM solution of ligand, the perfusate was collected into scintillation vials at 1 min. intervals and the dopamine released was quantified by scintillation counting. Peaks of radioactivity released above background were summed and the average basal release during that time was subtracted from the total. Release was expressed as a percentage of release obtained with an equal concentration of S(-)nicotine.

nicotinic receptors = experiment: Inhibition of L-[^3 H] nicotine binding to mouse brain membrane preparations; parameters: species or system mouse (DBA strain); settings: mouse brain membranes, 2 hr. incubation at 4° C., pH 7.5, racemic mixture of ligand
Method: Mice (DBA strain) were maintained on a 12 hour light/dark cycle and were allowed free access to water and food supplied by Wayne Lab Blox, Madison, Wis. Animals used in the present studies were 60 to 90 days of age and weighed 20 to 25 g. Brain membrane preparations were obtained from pooled brain tissue of both males and females.
Mice were killed by cervical dislocation. Brains were removed and placed on an ice-cold platform. […] Protein was determined by the method of Lowry, et al., J. Biol. Chem., Vol. 193, pp. 265-275 (1951), using bovine serum albumin as the standard.
The binding of L-[^3 H] nicotine was measured using a modification of the method of Romano, et al., Science, Vol. 210, pp. 647-650 (1980) as described previously by Marks, et al., Mol. Pharmacol., Vol. 30, pp. 427-436 (1986). The binding of L-[^3 H] nicotine was measured using a 2 hr. incubation at 4° C. […] Nonspecific binding was determined by inclusion of 10 μM nonradioactive nicotine in the incubations. The inhibition of L-[^3 H] nicotine binding by test compounds was determined by including one of eight different concentrations of the test compound in the incubation. […] Inhibition constants (Ki values) were calculated from the IC50 values using the method of Cheng, et al., Biochem. Pharmacol., Vol. 22, pp. 3099-3108 (1973).

Structure (SMILES) | Emax [1] [%] | Ki (nicotinic receptors) [nM]
CC(=O)C1=CCC2CCC1N2C (stereo not shown) [Ferruginine, ferruginine] | 15 | 3100 ± 500
CC(=O)C1=CCC2CCC1N2 (stereo not shown) [Norferruginine, norferruginine] | 25 | 1100 ± 300
